Data as given in patent publication US12624067B2, “Cyclic peptide, cell scaffold material, cell separating material, and medium” (FUJIFILM Corporation, priority 2019, dated 2026).
Numbered stars: 1 amine (or outer) side, 2 acyl side, 3 side chain; on linkers, the order of the positions; unused ones are H or OH. Bridge positions count the residues as written; N and C are the ends. Square brackets hold non-standard residues; d marks the D form. Peptide text beside a SMILES is read from it. Pen = CC(C)(S)[C@H](N)C(=O)O; hCys = N[C@@H](CCS)C(=O)O; Orn = NCCC[C@H](N)C(=O)O; X1 = O=C(C[*:1])[*:2]; X2 = O=C(C[*:2])[*:1]

Legend:
[1] = Evaluation of molecule stability (alkali treatment, LC/MS residual rate); type: physicochemical; settings: 500 μM peptide plus equivalent of 1 M sodium hydroxide, 15° C., 20 minutes, LC/MS peak area
Experimental: The molecule stability of the cyclic peptide was evaluated by analyzing the alkali-treated cyclic peptide aqueous solution by liquid chromatography mass spectroscopy (LC/MS).
The alkali treatment was carried out by the following method. A 500 μM cyclic peptide aqueous solution was prepared, an equivalent of 1 M sodium hydroxide aqueous solution was added to this aqueous solution, and the resultant mixture was incubated at 15° C. for 20 minutes to obtain an alkali-treated cyclic peptide aqueous solution. The cyclic peptide residual rate was calculated by setting the total area of all peaks of the cyclic peptide before alkali treatment in LC/MS to 100% and determining the proportion of the total area of all peaks in LC/MS of the alkali-treated cyclic peptide aqueous solution, and the molecule stability was evaluated according to the following evaluation standards. It is preferable that the evaluation result satisfies the evaluation standard A, B, or C.
The conditions of the LC/MS used for the evaluation of molecule stability were set as follows. • LC apparatus: Prominence series (pump, column oven, autosampler, detector) (manufactured by Shimadzu Corporation) • MS detector: LC/MS2010EV (manufactured by Shimadzu Corporation) • Column: Cadenza CD-C18, inner diameter 2.0 mm×length 250 mm, particle size: 3 μm (manufactured by Imtakt Corporation) • Eluent A: a solution (pH 3) containing 10 mM ammonium formate as a solute, where the solvent is 100% water. • Eluent B: a solution (pH 3) containing 10 mM ammonium formate as a solute, where the solvent is acetonitrile/water=90/10. • Flow rate: 0.2 mL/min • Injection volume: 4 μL • Gradient: 0% to 30%: Eluent B (0 to 30 minutes), 100%: Eluent B (30 to 40 minutes), 0%: Eluent B (40 to 60 minutes)(B indicates the eluent B) • Column temperature: 45° C. • Ionization method: electrospray ionization (ESI) positive, ESI negative

[2] = target: human integrin αvβ5 (Homo sapiens, UniProt P06756+P18084); assay: Evaluation of integrin binding property (surface plasmon resonance, Biacore 3000, immobilized cyclic peptide); settings: peptide immobilized on CM5 sensor chip; human integrin αvβ5 30-1,000 nM, 25° C., HEPES buffer with 5 mM magnesium chloride; read-out: Integrin binding property (dissociation constant)
Experimental: A commercially available CM5 sensor chip (a carboxymethyl dextran introduction type, manufactured by GE Healthcare) was set in a surface plasmon resonance apparatus (product name: Biacore 3000, manufactured by GE Healthcare), the sensor was stabilized at a flow rate of 10 μL/min of a 4-(2-hydroxyethyl)-1-piperazineethanesulfonic acid (HEPES) buffer solution (20 mM HEPES-HCl, 150 mM NaCl, pH 7.4) for surface plasmon resonance (SPR), and 70 μL of a mixed aqueous solution of 0.2 M 1-(3-dimethylaminopropyl)-3-ethylcarbodiimide (EDC) and 0.04 M N-hydroxysuccinimide (NHS) was added thereto. Then, 300 μL of the sample solution of each of the above cyclic peptides diluted to 0.2 g/L with the HEPES buffer solution was supplied to the sensor chip, blocking treatment was subsequently carried out with an ethanolamine solution, and washing was carried out with a sodium hydroxide aqueous solution, whereby immobilization was carried out. However, only for the cyclic peptide 22, in which the number of lysine residues having an amino group as the immobilizing functional group was 1, the sample solution to be supplied to the sensor chip was set to 5,000 μL instead of 300 μL. Similarly; 70 μL of the mixed aqueous solution of 0.2 M EDC and 0.04 M NHS was added to another flow channel of the same sensor chip without immobilizing the sample, and then blocking treatment and washing treatment were carried out. Hereinafter, the obtained immobilization-treated sensor chip is referred to as an “immobilization-treated sensor chip A”.
After adding human integrin αvβ5 for 10 minutes at 25° C., which was diluted to 30 nM using a HEPES buffer solution to which magnesium chloride was added to 5 mM, in each flow channel of the immobilization-treated sensor chip A prepared in (1) above, the same HEPES buffer solution (containing 5 mM magnesium chloride) was allowed to flow as a running buffer for 30 minutes, and measurement was carried out with Biacore 3000.
Then, a regeneration treatment of removing human integrin αvβ5 was carried out by allowing a 0.5 M EDTA aqueous solution to flow through each flow channel for 10 minutes. Further, the above-described measurement process consisting of adding integrin for 10 minutes, allowing a running buffer to flow for 30 minutes, carrying out measurement with Biacore 3000, and carrying out regeneration treatment with 0.5 M EDTA aqueous solution was carried out in the same manner for 100 nM human integrin αvβ5, 300 nM human integrin αvβ5, and 1,000 nM human integrin αvβ5. Dissociation constant between the cyclic peptide and human integrin αvβ5 was calculated from the difference between the value measured by Biacore 3000 in the flow channel immobilized with the cyclic peptide and the value measured by Biacore 3000 in the flow channel unimmobilized with the cyclic peptide, in a case where each concentration of human integrin αvβ5 was allowed to flow; and the integrin binding property was evaluated according to the following evaluation standards. It is preferable that the evaluation result satisfies the evaluation standard A, B, or C.

Chain of human integrin αvβ5 (P06756 31-889 limits assumed): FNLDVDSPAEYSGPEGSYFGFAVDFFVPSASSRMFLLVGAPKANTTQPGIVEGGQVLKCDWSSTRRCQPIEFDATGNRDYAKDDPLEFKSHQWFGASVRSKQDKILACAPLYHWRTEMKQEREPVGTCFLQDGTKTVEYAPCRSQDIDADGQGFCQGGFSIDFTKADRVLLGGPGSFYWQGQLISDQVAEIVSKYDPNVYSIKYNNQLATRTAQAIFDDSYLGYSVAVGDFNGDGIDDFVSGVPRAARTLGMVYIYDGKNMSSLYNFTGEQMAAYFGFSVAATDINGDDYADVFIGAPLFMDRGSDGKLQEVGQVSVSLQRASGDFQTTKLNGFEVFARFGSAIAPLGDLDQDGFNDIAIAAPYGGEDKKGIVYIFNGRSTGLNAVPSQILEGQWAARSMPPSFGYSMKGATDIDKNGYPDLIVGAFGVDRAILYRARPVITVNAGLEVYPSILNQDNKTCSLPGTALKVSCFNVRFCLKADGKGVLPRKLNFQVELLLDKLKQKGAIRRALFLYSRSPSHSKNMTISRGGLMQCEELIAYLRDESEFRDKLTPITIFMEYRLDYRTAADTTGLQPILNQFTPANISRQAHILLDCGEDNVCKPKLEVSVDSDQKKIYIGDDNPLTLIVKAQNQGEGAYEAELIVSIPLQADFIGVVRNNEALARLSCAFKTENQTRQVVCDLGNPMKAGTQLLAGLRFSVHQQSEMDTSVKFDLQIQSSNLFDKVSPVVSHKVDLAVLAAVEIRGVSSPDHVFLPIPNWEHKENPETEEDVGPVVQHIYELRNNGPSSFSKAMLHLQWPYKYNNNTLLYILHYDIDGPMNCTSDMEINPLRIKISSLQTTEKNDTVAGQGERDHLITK
Chain of human integrin αvβ5 (P06756 891-1048 partner limits assumed): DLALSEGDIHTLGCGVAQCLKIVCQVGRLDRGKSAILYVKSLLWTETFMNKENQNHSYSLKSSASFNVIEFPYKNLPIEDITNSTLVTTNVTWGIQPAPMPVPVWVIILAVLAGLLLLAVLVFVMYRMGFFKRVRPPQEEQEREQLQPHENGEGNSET
Chain of human integrin αvβ5 (P18084 24-799): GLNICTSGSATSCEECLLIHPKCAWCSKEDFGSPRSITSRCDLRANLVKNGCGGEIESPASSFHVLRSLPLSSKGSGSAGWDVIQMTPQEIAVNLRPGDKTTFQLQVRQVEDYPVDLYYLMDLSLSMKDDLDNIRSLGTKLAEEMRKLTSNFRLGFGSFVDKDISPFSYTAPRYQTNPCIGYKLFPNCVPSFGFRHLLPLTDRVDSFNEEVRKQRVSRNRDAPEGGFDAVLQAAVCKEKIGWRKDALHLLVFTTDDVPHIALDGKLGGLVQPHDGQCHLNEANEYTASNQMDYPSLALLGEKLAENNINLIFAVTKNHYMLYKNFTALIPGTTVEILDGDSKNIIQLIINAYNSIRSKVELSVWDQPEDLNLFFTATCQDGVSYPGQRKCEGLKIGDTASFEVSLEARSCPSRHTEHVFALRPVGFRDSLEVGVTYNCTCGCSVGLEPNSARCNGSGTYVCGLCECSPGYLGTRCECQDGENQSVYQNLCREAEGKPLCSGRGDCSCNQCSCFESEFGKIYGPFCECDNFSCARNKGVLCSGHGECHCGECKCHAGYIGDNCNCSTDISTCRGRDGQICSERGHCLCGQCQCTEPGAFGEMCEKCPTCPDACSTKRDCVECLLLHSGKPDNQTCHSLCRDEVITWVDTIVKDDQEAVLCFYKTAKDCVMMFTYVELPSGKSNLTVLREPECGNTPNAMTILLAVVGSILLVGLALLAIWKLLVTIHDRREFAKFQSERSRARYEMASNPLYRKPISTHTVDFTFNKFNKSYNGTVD

Row | SMILES | Molecule stability (cyclic peptide residual rate) [1] | Kd [2]
1 | CC1(C)SCC(=O)N[C@@H](CCC(=O)O)C(=O)N[C@H]2CCCNC(=O)CSCC[C@H](NC(=O)[C@H](CC(=O)O)NC(=O)CNC(=O)[C@H](CCCNC(=N)N)NC2=O)C(=O)N[C@@H](Cc2ccccc2)C(=O)N[C@@H]1C(=O)N[C@@H](CCCCN)C(=O)N[C@@H](CCCCN)C(=O)N[C@@H](CCCCN)C(=O)O [Cyclic peptide 24] ({CH2CO}-E[Orn]RGD[hCys]F[Pen]KKK-OH; linker 2-6 via X2; thioether N-8) | A (The residual rate of the cyclic peptide is 70% or more.) | < 50 nM
2 | N=C(N)NCCC[C@@H]1NC(=O)[C@@H]2CCSCC(=O)NCCCC[C@H](NC(=O)[C@H](CC(=O)O)NC(=O)CNC1=O)C(=O)N[C@@H](Cc1ccccc1)C(=O)N[C@H](C(=O)N[C@@H](CCCCN)C(=O)N[C@@H](CCCCN)C(=O)N[C@@H](CCCCN)C(=O)O)CCSCC(=O)N[C@@H](Cc1ccc(O)cc1)C(=O)N2 [Cyclic peptide 25] ({CH2CO}-Y[hCys]RGDKF[hCys]KKK-OH; linker 2-6 via X1; thioether N-8) | A (The residual rate of the cyclic peptide is 70% or more.) | < 50 nM
3 | CC(C)C[C@@H]1NC(=O)CSCC[C@@H](C(=O)N[C@@H](CCCCN)C(=O)N[C@@H](CCCCN)C(=O)N[C@@H](CCCCN)C(=O)O)NC(=O)[C@H](Cc2ccccc2)NC(=O)[C@@H]2CCCCNC(=O)CSCC[C@H](NC1=O)C(=O)N[C@@H](CCCNC(=N)N)C(=O)NCC(=O)N[C@@H](CC(=O)O)C(=O)N2 [Cyclic peptide 26] ({CH2CO}-L[hCys]RGDKF[hCys]KKK-OH; linker 2-6 via X1; thioether N-8) | A (The residual rate of the cyclic peptide is 70% or more.) | < 50 nM
4 | C[C@@H](O)[C@@H]1NC(=O)CSCC[C@@H](C(=O)N[C@@H](CCCCN)C(=O)N[C@@H](CCCCN)C(=O)N[C@@H](CCCCN)C(=O)O)NC(=O)[C@H](Cc2ccccc2)NC(=O)[C@@H]2CCCCNC(=O)CSCC[C@H](NC1=O)C(=O)N[C@@H](CCCNC(=N)N)C(=O)NCC(=O)N[C@@H](CC(=O)O)C(=O)N2 [Cyclic peptide 27] ({CH2CO}-T[hCys]RGDKF[hCys]KKK-OH; linker 2-6 via X1; thioether N-8) | A (The residual rate of the cyclic peptide is 70% or more.) | < 50 nM
5 | CC(C)[C@@H]1NC(=O)CSCC[C@@H](C(=O)N[C@@H](CCCCN)C(=O)N[C@@H](CCCCN)C(=O)N[C@@H](CCCCN)C(=O)O)NC(=O)[C@H](Cc2ccccc2)NC(=O)[C@@H]2CCCCNC(=O)CSCC[C@H](NC1=O)C(=O)N[C@@H](CCCNC(=N)N)C(=O)NCC(=O)N[C@@H](CC(=O)O)C(=O)N2 [Cyclic peptide 28] ({CH2CO}-V[hCys]RGDKF[hCys]KKK-OH; linker 2-6 via X1; thioether N-8) | A (The residual rate of the cyclic peptide is 70% or more.) | < 50 nM
6 | N=C(N)NCCC[C@@H]1NC(=O)[C@@H]2CCSCC(=O)NCCCC[C@H](NC(=O)[C@H](CC(=O)O)NC(=O)CNC1=O)C(=O)N[C@@H](Cc1ccccc1)C(=O)N[C@H](C(=O)N[C@@H](CCCCN)C(=O)N[C@@H](CCCCN)C(=O)N[C@@H](CCCCN)C(=O)O)CCSCC(=O)N[C@@H](CC(=O)O)C(=O)N2 [Cyclic peptide 29] ({CH2CO}-D[hCys]RGDKF[hCys]KKK-OH; linker 2-6 via X1; thioether N-8) | A (The residual rate of the cyclic peptide is 70% or more.) | < 50 nM
7 | N=C(N)NCCC[C@@H]1NC(=O)[C@@H]2CCSCC(=O)NCCCC[C@H](NC(=O)[C@H](CC(=O)O)NC(=O)CNC1=O)C(=O)N[C@@H](Cc1ccccc1)C(=O)N[C@H](C(=O)N[C@@H](CCCCN)C(=O)N[C@@H](CCCCN)C(=O)N[C@@H](CCCCN)C(=O)O)CCSCC(=O)N[C@@H](CCC(=O)O)C(=O)N2 [Cyclic peptide 30] ({CH2CO}-E[hCys]RGDKF[hCys]KKK-OH; linker 2-6 via X1; thioether N-8) | A (The residual rate of the cyclic peptide is 70% or more.) | < 50 nM
8 | CC[C@H](C)[C@@H]1NC(=O)CSCC[C@@H](C(=O)N[C@@H](CCCCN)C(=O)N[C@@H](CCCCN)C(=O)N[C@@H](CCCCN)C(=O)O)NC(=O)[C@@H]2CCCN2C(=O)[C@@H]2CCCCNC(=O)CSCC[C@H](NC1=O)C(=O)N[C@@H](CCCNC(=N)N)C(=O)NCC(=O)N[C@@H](CC(=O)O)C(=O)N2 [Cyclic peptide 31] ({CH2CO}-I[hCys]RGDKP[hCys]KKK-OH; linker 2-6 via X1; thioether N-8) | A (The residual rate of the cyclic peptide is 70% or more.) | 50 to 100 nM
9 | CC[C@H](C)[C@@H]1NC(=O)CSCC[C@@H](C(=O)N[C@@H](CCCCN)C(=O)N[C@@H](CCCCN)C(=O)N[C@@H](CCCCN)C(=O)O)NC(=O)[C@H](Cc2ccc(O)cc2)NC(=O)[C@@H]2CCCCNC(=O)CSCC[C@H](NC1=O)C(=O)N[C@@H](CCCNC(=N)N)C(=O)NCC(=O)N[C@@H](CC(=O)O)C(=O)N2 [Cyclic peptide 32] ({CH2CO}-I[hCys]RGDKY[hCys]KKK-OH; linker 2-6 via X1; thioether N-8) | A (The residual rate of the cyclic peptide is 70% or more.) | 50 to 100 nM
10 | CC[C@H](C)[C@@H]1NC(=O)CSCC[C@@H](C(=O)N[C@@H](CCCCN)C(=O)N[C@@H](CCCCN)C(=O)N[C@@H](CCCCN)C(=O)O)NC(=O)[C@H](CCCNC(=N)N)NC(=O)[C@H](Cc2ccccc2)NC(=O)[C@@H]2CCCCNC(=O)CSCC[C@H](NC1=O)C(=O)N[C@@H](CCCNC(=N)N)C(=O)NCC(=O)N[C@@H](CC(=O)O)C(=O)N2 [Cyclic peptide 33] ({CH2CO}-I[hCys]RGDKFR[hCys]KKK-OH; linker 2-6 via X1; thioether N-9) | A (The residual rate of the cyclic peptide is 70% or more.) | 100 to 200 nM
11 | CC[C@H](C)[C@@H]1NC(=O)CSCC[C@@H](C(=O)N[C@@H](CCCCN)C(=O)N[C@@H](CCCCN)C(=O)N[C@@H](CCCCN)C(=O)O)NC(=O)[C@H](C)NC(=O)[C@H](Cc2ccccc2)NC(=O)[C@@H]2CCCCNC(=O)CSCC[C@H](NC1=O)C(=O)N[C@@H](CCCNC(=N)N)C(=O)NCC(=O)N[C@@H](CC(=O)O)C(=O)N2 [Cyclic peptide 34] ({CH2CO}-I[hCys]RGDKFA[hCys]KKK-OH; linker 2-6 via X1; thioether N-9) | A (The residual rate of the cyclic peptide is 70% or more.) | 50 to 100 nM
12 | CC[C@H](C)[C@@H]1NC(=O)CSCC[C@@H](C(=O)N[C@@H](C)C(=O)N[C@@H](CCCCN)C(=O)N[C@@H](CCCCN)C(=O)N[C@@H](CCCCN)C(=O)O)NC(=O)[C@H](Cc2ccccc2)NC(=O)[C@@H]2CCCCNC(=O)CSCC[C@H](NC1=O)C(=O)N[C@@H](CCCNC(=N)N)C(=O)NCC(=O)N[C@@H](CC(=O)O)C(=O)N2 [Cyclic peptide 35] ({CH2CO}-I[hCys]RGDKF[hCys]AKKK-OH; linker 2-6 via X1; thioether N-8) | A (The residual rate of the cyclic peptide is 70% or more.) | < 50 nM
